Results: PMC5669903
Several values for one entry are separate records, joined by “and”; a condition that tells them apart may be missing. Equal values may be shown once. Read-outs that look alike come from different tables or passages of the source.

How the values were obtained:
Mutant CP Discs = target: T1, Mutant CP Discs (Tobacco mosaic virus, UniProt P69687, R72G/S16G/S50G/Y73G); assay: biochemical; assay type: binding; conditions: MST, 20°C
T1 construct: 6×His; made in house

TMV CP replication = assay: Leaf disc method with western blot of TMV CP
[1] = target: recombinant TMV CP four-layer aggregate discs (Tobacco mosaic virus, UniProt P69687); assay: Disassembly of recombinant TMV CP discs by SEC and TEM
TMV CP monomer = TMV CP monomer (Tobacco mosaic virus, UniProt P69687); assay: biochemical; conditions: Kd to CP monomer
TMV = assay: Curative activity against TMV, half leaf; assay type: in vivo, Tobacco mosaic virus; conditions: for Curative activity against TMV: half leaf
mutated CP discs = mutated CP discs (Tobacco mosaic virus, UniProt P69687, R72G/S16G/S50G/Y73G); assay: Disassembly of mutated CP discs by SEC and TEM; assay type: biochemical; conditions: 1:20 (CP discs:NNM) ratio
TMV particles = assay: MST binding of NNM to TMV particles; design: species or system Tobacco mosaic virus
[2] = target: wt CP four-layer aggregate discs (Tobacco mosaic virus, UniProt P69687); assay: Disassembly of wt CP discs (isolated from TMV particles) by SEC
TMV CP discs [3] = target: T2, TMV CP discs (Tobacco mosaic virus, UniProt P69687); assay type: binding; conditions: for Kd: 20°C
T2 construct: 6×His (N, cleaved yes); made in house; host or cells: Escherichia coli BL21 (DE3)-plysS, pET28a
Description: We next determined the affinity between CP and NNM using two other independent methods, fluorescence spectrum and ITC.

mutant TMV CP monomer = target: T3, mutant TMV CP monomer (Tobacco mosaic virus, UniProt P69687, R72G/S16G/S50G/Y73G); assay: biochemical; assay type: binding; conditions: Kd to mutant CP monomer, MST, 20°C
T3 construct: 6×His; made in house

TMV RNA = assay: ITC binding of NNM to TMV RNA; design: species or system Tobacco mosaic virus; conditions: 20°C
TMV CP discs [4] = target: T2, TMV CP discs; assay: biochemical; assay type: binding
TMV CP mutant [5] = target: T4, TMV CP mutant (Tobacco mosaic virus, UniProt P69687, R72G/S16G/S50G/Y73G); assay type: binding; conditions: fluorescence spectrum; 5 mM compounds and 0.5 mM TMV CP; read-out: Kd mutant (Fluo.)
T4 construct: 6×His; made in house

TMV CP mutant [6] = target: T4, TMV CP mutant; assay type: binding; conditions: ITC, one-set-of-sites model; 5 mM compounds and 0.5 mM TMV CP

T1 sequence (P69687 whole entry S16G/S50G/R72G/Y73G): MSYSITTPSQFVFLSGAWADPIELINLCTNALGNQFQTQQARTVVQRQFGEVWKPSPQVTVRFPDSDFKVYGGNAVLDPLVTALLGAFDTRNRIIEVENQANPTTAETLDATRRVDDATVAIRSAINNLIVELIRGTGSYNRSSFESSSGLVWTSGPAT
Chain of TMV CP monomer (P69687 whole entry): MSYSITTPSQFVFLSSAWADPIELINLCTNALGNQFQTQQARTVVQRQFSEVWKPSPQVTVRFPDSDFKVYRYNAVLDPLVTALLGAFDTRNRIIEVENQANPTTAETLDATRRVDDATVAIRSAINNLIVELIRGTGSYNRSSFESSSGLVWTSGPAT
T2 sequence (P69687 whole entry): as above
Chain of recombinant TMV CP four-layer aggregate discs (P69687 whole entry): as above
T3 sequence (P69687 whole entry S16G/S50G/R72G/Y73G): as the sequence (P69687 whole entry S16G/S50G/R72G/Y73G) above
T4 sequence (P69687 whole entry S16G/S50G/R72G/Y73G): as above
Chain of wt CP four-layer aggregate discs (P69687 whole entry): as the sequence (P69687 whole entry) above
Chain of mutated CP discs (P69687 whole entry R72G/S16G/S50G/Y73G, looked up): as the sequence (P69687 whole entry S16G/S50G/R72G/Y73G) above

CNCC(=O)N[C@@H](CO)C(=O)N[C@H]1[C@H](O)[C@@H](O)[C@H](n2ccc(N)nc2=O)O[C@@H]1C(N)=O [NNM, Ningnanmycin]
Kd (Mutant CP Discs; Kd to mutant CP discs): 43.5 µM and ~43.5 µM | bands of the CP in western blot (TMV CP replication; 0.5 mg/mL NNM for 24 h): weak | bands of the CP in western blot (TMV CP replication; 0.5 mg/mL NNM, after 72 h): not visible | bands of CP in western blot (TMV CP replication; 500 μg/mL NNM, time not stated): weak | disassembly of discs into monomeric proteins [1]: completely disassembled into monomeric proteins | portion of the discs disassembled into monomeric proteins [1]: 60% | visibility of four-layer aggregate discs by TEM [1]: invisible | Kd (TMV CP monomer): 18.6 µM and ~18.6 µM | Curative activity against TMV (TMV; 100 μg/mL): 29.8% | Curative activity against TMV (TMV; 500 μg/mL): 60.0% | mutated protein discs disassembled into protein monomers (mutated CP discs): approximately 35% | Kd (TMV particles; 20°C): 25.8 µM | Kd (TMV particles; 25°C): 31 µM | Kd (TMV particles; 30°C): 52.3 µM | Kd (TMV particles; from 20 to 30°C): 25.8 to 52.3 µM | disassembly of wt CP four-layer aggregate discs [2]: completely disassembled into monomeric proteins | K (binding constant) to TMV CP discs (TMV CP discs [3]): 534000 ± 27500 M⁻¹ | number of NNM molecules interacting with one CP disc (TMV CP discs [3]): 39 to 41 and 39–41 | ΔG (TMV CP discs [3]): −6.0 | ΔH (TMV CP discs [3]): 17.2 kcal/mol | Kd (mutant TMV CP monomer): 212 µM and ~212 µM | Kd (TMV RNA): 16.5 µM | Kd (TMV CP discs [4]; Kd to CP discs): 1.1 to 3.96 µM | Kd (TMV CP discs [4]; Kd to TMV CP discs): 1.1 µM and 1.29 µM and 3.96 µM and ~1.1 µM

Cytosinpeptidemycin
Kd to mutant CP discs (Mutant CP Discs): No binding | Kd to mutant CP discs (Mutant CP Discs; listed as cytosinpeptidemycin): no binding | Curative activity against TMV (TMV; 100 μg/mL): 11.9% | Curative activity against TMV (TMV; 500 μg/mL): 48.7% | anti-TMV activity in words (TMV; 500 μg/mL, vivo experiment): significant anti-TMV activities | Kd (TMV CP mutant [5]): 250 µM | Kd (TMV CP discs [3]; ITC, one-set-of-sites model): 5.41 µM | Kd (TMV CP discs [3]; fluorescence spectrum, read-out: Kd to TMV CP discs (Fluo.)): 23.2 µM | Kd (TMV CP mutant [6]): 33 µM | Kd (TMV CP discs [4]; MST, 20°C, read-out: Kd to TMV CP discs): 4.84 µM
